Test results as given in patent publication US20220218809A1, “IDO ACTIVITY AS A MARKER OF TUMOR IMMUNE ESCAPE AND IDO INHIBITORS AS A MEANS OF ENHANCING T CELLS RESPONSE TO ANTIGEN SPECIFIC VACCINE” (Wisconsin Alumni Research Foundation, priority 2018, published 2022).

What was measured:
[1] = tested on: PAP-specific IFNγ-secreting T cells (PBMC); test: IFNγ ELISPOT of patient PBMC stimulated with PAP antigen; type: cell-based, human; conditions: PBMC from 22 patients after vaccine and pembrolizumab; IDO enzyme 5 ug/mL or 1-MDT 2 mM; 48 hours; changes not statistically significant
Experimental: ELISPOT for measuring IFNγ release was performed as previously described (21). For these analyses, cryopreserved PBMC were thawed, and cultured with PAP protein antigen (Fitzgerald Industries, Acton, Mass.), media alone, or phytohemaglutinin (PHA). Stimulations were also conducted in the presence of IDO enzyme (5 ug/mL) or 1-MDT (2 mM). After 48 hours, plates were developed and spots enumerated using an automated ELISPOT reader (ImmunoSpot, CTL, Shaker Heights, Ohio).
IDO activity is associated with modest decrease in vaccine antigen-specific T-cell function.

T-cell activation = conditions: literature (ref 22); cited from earlier work
IDO activity = test: Serum kynurenine-to-tryptophan (kyn:trp) ratio as measure of IDO activity in treated mCRPC patients; type: in vivo, human; conditions: patients with mCRPC
Experimental: Tryptophan and kynurenine concentrations were measured directly in serum samples using a clinically validated LC/MS method. All analysis was performed by Worldwide Clinical Trials (Morrisville, N.C.) by personnel blinded to the sample source.
Patients with prostate cancer treated with an anti-tumor vaccine and/or PD-1 develop increased IDO activity and expression. […] Because IDO is also an IFNγ-regulated gene, we questioned whether prostate cancer immunotherapy similarly elicited increases in IDO expression. We have recently reported the results of a trial in which patients with mCRPC were treated with a DNA vaccine encoding PAP alone for 12 weeks, followed by pembrolizumab over the subsequent 12 weeks, or were treated with both agents for 12 weeks (17). Sera was assessed for kynurenine and tryptophan concentrations at baseline and at 12 and 24 weeks, effectively permitting an analysis of changes in IDO activity following treatment with vaccine alone, pembrolizumab alone, or the combination. […] IFNγ concentration was also directly evaluated in sera samples.

Row | Compound | detection of PAP-specific IFNγ-secreting cells by ELISPOT [1] | effect on T-cell activation in vitro (T-cell activation) | median kyn:trp ratio post-treatment (IDO activity; after 12 weeks of treatment) | median kyn:trp ratio pre-treatment (IDO activity; before the 12-week treatment period)
1 | IDO enzyme: indoleamine 2,3 dioxygenase enzyme added to the PBMC cultures | tended to suppress |  |  | 
2 | Cn1cc(C[C@H](N)C(=O)O)c2ccccc21 [1-methyltryptophan] | increased the detection of IFNγ-secreting PAP-specific cells | enhance T-cell activation in vitro |  | 
3 | pembrolizumab |  |  | 0.066 | 0.061
